Source: patent US20180371158A1, “PEPTIDOMIMETIC POLYMERS AS CONTROLLED RELEASE MATRICES FOR SMALL MOLECULES, BIOLOGICALS, SYNTHETIC OR SEMI-SYNTHETIC MACROMOLECULES” (priority 2015, published 2018)

Assay: Release study of two dyes from electrospun fiber mat immersed in PBS at 37° C., UV absorbance
Format: physicochemical
Experimental: 6.36 mg rhodamine B was dissolved in 20 mL PBS. 200 μL solution of this solution was taken and 1.8 mL PBS was added to achieve a 10× dilution. The solution was serially diluted from 100× to 1000×, and the corresponding absorbance of each was measured. Rhodamine B concentration vs absorbance was plotted.
The above solution was diluted to 30, 40, 50, 60, 70, 80, 90, 100, 150, 200× concentrations. UV absorbance was measured for each solution.
In a 20 mL scintillation vial, 2 cm×2 cm fiber mat of the polyester was immersed in 20 ml PBS. The vial was stored in 37° C. incubator. 2 mL PBS was removed at each time point and replaced with 2 mL fresh PBS, and UV absorbance was measured. These measurements were performed in triplicates. Dye release was calculated according to the UV absorbance standard curve.

- cumulative release of dye from fiber mat (after day 55, fiber mat of p(mPhe-Keto-BocGlu) mixed with rhodamine B and coumarin dye): 17.0±3.2%
- cumulative release of dye from fiber mat (after day 90, fiber mat of p(mPhe-Keto-BocGlu) mixed with rhodamine B and coumarin dye): 30.4±6.5%
- cumulative release of dye from fiber mat (days 0-7, fiber mat of p(mPhe-Keto-BocGlu) mixed with rhodamine B and coumarin dye): 7.4±1.6%
Compound: CCN(CC)c1ccc2c(-c3ccccc3C(=O)O)c3ccc(=[N+](CC)CC)cc-3oc2c1.[Cl-] [rhodamine B, Rhodamine B]
